From article PMC10298275, “Antiproliferative Activity and Impact on Human Gut Microbiota of New O-Alkyl Derivatives of Naringenin and Their Oximes” (International Journal of Molecular Sciences, 2023)
In brackets after ≈: the same amount, converted by molar mass. Entries after “also recorded” stand apart in the source; their conditions may differ. Like-named read-outs stand apart in the source and are kept apart here.

Assays:
[1] = tested on: Staphylococcus aureus ATCC 25923; assay: MIC, microdilution method; type: cell-based; conditions: S. aureus ATCC 25923, MHB, 18 h, 37 °C, tested 512 to 1 µg/mL
Description: (§1) Non-pathogenic reference strains representing the intestinal microbiome were used for the studies: Escherichia coli K12, Staphylococcus aureus ATCC 25923 and Enterococcus faecalis ATCC 29212. All strains were obtained from the collection of the Department of Microbiology at the Medical University of Wrocław.
(§2) The strains were received from the museum (−80 °C) and grown in tryptic soy broth (TSB, OXOID, Basingstoke, UK) under continuous shaking conditions (MaxQTM6000 incubator shaker, Thermo Scientific, Waltham, MA, USA) at 125 rpm at 37 °C. Then, they were moved to the growth media, namely tryptic soy agar (TSA, OXOID, Basingstoke, UK) and MacConkey agar (MC, Millipore, Darmstadt, Germany) for S. aureus or E. faecalis and E. coli, respectively.
(§3) A fresh 18–24 h culture was used for each study. For this purpose, a culture with a density of 1.5 × 10^8 CFU/mL in Mueller–Hinton broth (MHB, OXOID, Basingstoke, UK) was prepared and used for further microdilution studies.
(§4) The antimicrobial activity of the O-alkyl derivatives of naringenin and their oximes was tested in vitro using the microdilution method, showing the minimum inhibitory concentration (MIC), in accordance with the recommendations of the European Antimicrobial Susceptibility Testing Committee EUCAST [44]. MICs were determined in 96-well microdilution plates. The tests were carried out in MHB medium. The O-alkyl derivatives of naringenin and their oximes were tested in the concentration range of 512 to 1 µg/mL in a geometric process in MHB medium. The final concentration of the test strains in each test well was 5 × 10^5 CFU/mL. MICs were read after 18 h (for E. coli and S. aureus) and 24 h (for E. faecalis) incubation at 37 °C.
(§5) A strain growth control (tested strain in medium), background control for tested compounds (naringenin derivatives in MHB), medium control (only pure MHB) and compound solvent control (DMSO at test compound concentration, strain and MHB) were set for each experiment. Each test was set up with three independent experiments, each as three separate replicates.
(§6) The […], OD600, was measured in a plate reader (ASYS UVM340, BIOCHROM Ltd., Cambridge, UK). The background control of the tested compounds and the clean medium were included in the absorbance results.

[2] = tested on: Enterococcus faecalis ATCC 29212; assay: MIC, microdilution method; type: cell-based; conditions: E. faecalis ATCC 29212, MHB, 24 h, 37 °C, tested 512 to 1 µg/mL
Description: as §1, §2, §3, §4, §5, §6

Escherichia coli K12 [3] = assay: MIC, microdilution method; type: cell-based; conditions: E. coli K12, MHB, 18 h, 37 °C, tested 512 to 1 µg/mL
Description: as §1, §2, §3, §4, §5, §6

SRB assay, cytotoxicity [4] = type: cell-based, mouse; conditions: mouse, 3T3-L1 cells; 3T3-L1, SRB, 24 h exposure, three independent repeats; read-out: Cytotoxicity (IC50 ± SD)
Description: (§7) The HT-29 cells (ATCC, Manassas, VA, USA) were cultured within α-MEM (IIET PAS, Wrocław, Poland) supplemented with 10% fetal bovine serum (Sigma, St. Louis, MO, USA), antimycotic (100 μg/mL penicillin, 100 μg/mL streptomycin and 0.25 μg/mL amphotericin) (Sigma) and 2 mM glutamine (Sigma). The 3T3-L1 cells (ATCC, Manassas, VA, USA) were cultivated using DMEM high-glucose medium (IIET PAS, Wrocław, Poland) supplemented as above. Both cell lines were cultured at 37 °C in an atmosphere of 5% CO2.
(§8) The sulforhodamine B (SRB) assay was performed according to a previously published protocol. Briefly, 1 × 10^4 HT-29 or 5 × 10^3 3T3-L1 cells were seeded into 96-well plates. After attaching to the plate surface, the cells were incubated with 100, 75, 50, 25, 10 or 1 µg/mL of the investigated compounds for 24 h. After this time, proteins were precipitated with trichloroacetic acid and stained with SRB. The absorbance was measured at 560 nm using a GloMax Discover Microplate Reader (Promega, Madison, WI, USA).

[5] = tested on: caspase 3/7 in HT-29 cells; assay: Caspase-Glo 3/7 Assay; type: cell-based, human; conditions: HT-29, 50 µg/mL; for caspase 3/7 activation: measured at 6, 12, 24 and 48 h
Description: The activity of two effector caspases 3 and 7 was analyzed using the Caspase-Glo 3/7 Assay (Promega) according to the recommendations of the manufacturer. The cells were seeded at a density of 1 × 10^4 per well for the test on a 96-well plate. Then, cells were incubated with A2, B2, A9, B9 and NG at a concentration of 50 µg/mL for 48 h. Half an hour before each measurement of caspase activity, an equal volume of Caspase-Glo 3/7 substrate solution was added to cells. The luminescence signals were detected using a GloMax Discover Microplate Reader at the 6th, 12th, 24th and 48th hours of the experiment. The reactions for each sample were repeated in triplicate and presented as the mean value.

HT-29 cells [6] = assay: RealTime-Glo Annexin V Apoptosis and Necrosis Assay; type: cell-based, human; conditions: for annexin V luminescence and necrosis fluorescence signals versus untreated cells: HT-29, during 12 h incubation, applied concentrations 10-100 µg/mL
Description: The process of apoptosis was determined using the RealTime-Glo Annexin V Apoptosis and Necrosis Assay (Promega) according to the manufacturer’s protocol. Briefly, 1 × 10^4 HT-29 cells were seeded into a single well of a 96-well plate. After overnight incubation, the cells were treated with 10, 25, 50 and 100 µg/mL of the investigated compounds and detection reagent for 24 h. As a negative control, untreated cells were used. The luminescence, fluorescence and OD525 signals were detected at each hour of the first 12 h of incubation. The end measurement was performed at the 24th hour of the experiment. All samples were prepared in triplicate, and then their means were calculated.

[7] = tested on: Staphylococcus aureus ATCC 25923; assay: MBC assay; type: cell-based; conditions: Staphylococcus aureus, ATCC25923; S. aureus ATCC 25923; read-out: MBC
Description: (§9) The minimum bactericidal concentration (MBC) was tested for all naringenin derivatives. First, 10 µL of medium was taken from the plate, on which the MIC was determined for the MIC value, the value below and the two values above. This volume was transferred to TSA or MC agar. After 18–24 h (depending on strain) incubation at 37 °C, colonies were counted. The concentration of test compounds at which no bacterial growth was observed was defined as the MBC value. Each experiment was repeated 3 times.

[8] = tested on: Enterococcus faecalis ATCC 29212; assay: MBC assay; type: cell-based; conditions: Enterococcus faecalis, ATCC29212; E. faecalis ATCC 29212; read-out: MBC
Description: as §9

Escherichia coli K12 [9] = assay: MBC assay; type: cell-based; conditions: E. coli K12
Description: as §9

HT-29 cells [10] = assay: MTT assay, cell viability; type: cell-based, human; conditions: 24 h; for effect on colon adenocarcinoma cells (viability, MTT): HT-29, highest concentration 100 µg/mL
Description: as §7
First, 1 × 10^4 HT-29 cells or 5 × 10^3 3T3-L1 cells were seeded into a 96-well plate and incubated for one night. Then, cells were treated with different concentrations of the investigated compounds within 24 h. Afterwards, the medium was replaced with a fresh medium containing 0.5 mg/mL of 3-(4,5-dimethylthiazol-2-yl)-2,5-diphenyl-2H-tetrazolium bromide (MTT, Sigma) and incubated for 2 h at 37 °C. After removing the medium, the formazan salts were dissolved in dimethyl sulfoxide (DMSO, Sigma), and the absorbance of the solution was measured at 560 nm using a plate reader.

SRB assay, cytotoxicity [11] = type: cell-based, human; conditions: human, HT-29 cells; HT-29, SRB, 24 h exposure, three independent repeats; read-out: Cytotoxicity (IC50 ± SD)
Description: as §7, §8

[12] = Staphylococcus aureus, ATCC25923, read-out: MIC
[13] = Enterococcus faecalis, ATCC29212, read-out: MIC
[14] = Escherichia coli, read-out: MIC
[15] = Escherichia coli, read-out: MBC

Compound	MIC [1]	MIC [1, 12]	MIC [2, 13]	MIC (Escherichia coli K12 [3]; [14])	IC50 at 24 h (SRB assay, cytotoxicity [4])	caspase 3/7 activation [5]	annexin V luminescence and necrosis fluorescence signals versus untreated cells (HT-29 cells [6])	MBC [7]	MBC [8]	MBC (Escherichia coli K12 [9]; [15])	effect on colon adenocarcinoma cells (viability, MTT) (HT-29 cells [10])	IC50 at 24 h (SRB assay, cytotoxicity [11])	MIC [2]	melting point	time of caspase 3/7 activation [5]	onset of loss of membrane integrity (fluorescence signal), time shift with respect to luminescence (HT-29 cells [6]; HT-29, 50 µg/mL)	phosphatidylserine exposure (luminescent signal) on the outer side of the cell membrane (HT-29 cells [6]; HT-29, 50 µg/mL)	reduction in cell viability (HT-29 cells [10]; HT-29, MTT, 10 µg/mL dose)	MIC (Escherichia coli K12 [3])	MBC (Escherichia coli K12 [9])
CCCCCCOc1ccc([C@@H]2CC(=O)c3c(O)cc(OCCCCCC)cc3O2)cc1 [A2, 7,4′-di-O-hexylnaringenin]	>512 (>512) µg/mL	> 512 µg/mL	64 µg/mL (≈ 145 µM)	> 512 µg/mL	> 100 µg/mL	neither membrane switching of phosphatidylserine nor caspase activation was observed	both signals were similar to those for untreated cells	> 512 µg/mL	> 512 µg/mL	> 512 µg/mL	weak	> 100 µg/mL	–	–	–	–	–	–	–	–
CCCCCCCCCCCOc1cc(O)c2c(c1)O[C@H](c1ccc(O)cc1)CC2=O [A9, 7-O-Undecylnaringenin]	>512 (>512) µg/mL	> 512 µg/mL	512 µg/mL (≈ 1200 µM)	> 512 µg/mL	10.2 ± 0.2 µg/mL (≈ 23.8 µM)	significant caspase 3/7 activation was also detected	both signals were similar to those for untreated cells	> 512 µg/mL	> 512 µg/mL	> 512 µg/mL	completely inhibited	17.9 ± 0.65 µg/mL (≈ 41.8 µM)	512 (>512) µg/mL	103 to 104 °C	–	–	–	–	–	–
CCCCCCOc1ccc([C@@H]2CC(=NO)c3c(O)cc(OCCCCCC)cc3O2)cc1 [B2, 7,4′-di-O-hexylnaringenin oxime]	–	> 512 µg/mL	> 512 µg/mL	> 512 µg/mL	10.1 ± 6.49 µg/mL (≈ 22.1 µM)	neither membrane switching of phosphatidylserine nor caspase activation was observed	both signals were similar to those for untreated cells	> 512 µg/mL	> 512 µg/mL	> 512 µg/mL	–	49.8 ± 1.63 µg/mL (≈ 109 µM)	>512 (>512) µg/mL	–	–	–	–	–	–	–
CCCCCCCCCCCOc1cc(O)c2c(c1)O[C@H](c1ccc(O)cc1)CC2=NO [B9, 7-O-Undecylnaringenin oxime]	>512 (>512) µg/mL	> 512 µg/mL	256 µg/mL (≈ 580 µM)	> 512 µg/mL	6.74 ± 0.84 µg/mL (≈ 15.3 µM)	rapid activation of caspase 3/7	–	> 512 µg/mL	> 512 µg/mL	> 512 µg/mL	–	11.4 ± 1.17 µg/mL (≈ 25.9 µM)	–	171 to 173 °C	≤ 12 h	more than 5 h	significantly increased; also recorded: increased the level of phosphatidylserine	more than 50%	–	–
O=C1C[C@@H](c2ccc(O)cc2)Oc2cc(O)cc(O)c21 [NG, naringenin]	–	512 µg/mL (≈ 1880 µM)	> 512 µg/mL	512 µg/mL (≈ 1880 µM)	> 100 µg/mL	neither membrane switching of phosphatidylserine nor caspase activation was observed	both signals were similar to those for untreated cells	> 512 µg/mL	> 512 µg/mL	> 512 µg/mL	weak	> 100 µg/mL	–	–	–	–	–	–	512 µg/mL (≈ 1880 µM)	> 512 µg/mL
